Results: US10258291B2, “Systems and methods for evaluation of neuropathologies” (The Regents of the University of California, priority 2012, dated 2019)
“Also recorded” adds a separate entry of the source.

Experiments:
[1] = tested on: rhesus macaques (Macaca mulatta); test: P300 (P3) ERP in macaque EEG, auditory oddball paradigm, under ketamine, saline and 5 h post-ketamine; assay type: in vivo
From the text: (§1) In exemplary implementations of the disclosed technology to assess the efficacy of a treatment for a neuropsychiatric disorder, two adult male rhesus macaques (Macaca mulatta), e.g., 6 and 7 years old, were used. All procedures and animal care were approved by the Salk Institute Animal Care and Use Committee and carried out in accordance with the US National Institutes of Health Guide for the Care and Use of Laboratory Animals.
(§2) The exemplary stimuli presentation structure included a passive auditory intensity oddball paradigm to present different intensity tones to subjects sitting in an isolated, dimly lit room during the implementations. For example, the auditory stimuli included 100 ms (e.g., 10 ms rise/fall) pure sinusoidal tones (e.g., 1500 Hz) of either a low or a high intensity. Frequent (standard) and infrequent (deviant) stimuli were presented 80% and 20% of the time, respectively, as depicted in FIG. 4. The inter-stimulus interval was 700 ms. For example, twelve hundred standard and three hundred deviant stimuli were presented in each recording session. For example, both high-deviant (e.g., low-standard) and low-deviant (e.g., high-standard) conditions were used, e.g., to allow comparison of the responses to identical stimuli (e.g., low or high) in different contexts (e.g., standard or deviant).
(§3) For example, EEG scalp recordings were acquired with the Vision Recorder software using a BrainAmpMR system. An exemplary custom-designed 22-channel NHP EEG cap with AgCl electrodes was developed and used for the non-human primate subject data collection (e.g., PCB Ribbon Cable for BrainCap-MR with 5 k resistors; BrainCap MR Box 1.2; sintered ring electrodes with 1.5 mm touchproof safety socket termination and 120 cm heavy-duty leadwire).
(§4) The exemplary EEG data collection technique for the NHP subjects included the following preparation steps. […]
(§5) The exemplary EEG data was analyzed using Analyzer 2.0 software. […]

[2] = tested on: rhesus macaques (Macaca mulatta); test: Mismatch negativity (MMN) ERP in macaque EEG, auditory oddball paradigm, under ketamine, saline and 5 h post-ketamine; assay type: in vivo
From the text: as §1, §2, §3, §4, §5

[3] = ketamine, saline, 5 h post-ketamine

Compound: CNC1(c2ccccc2Cl)CCCCC1=O (stereo not drawn) [ketamine]
- Effect of ketamine on P300 (P3) 5 h after infusion ([1]; 5 h-post ketamine vs. saline F(1,301)=0.06, p=0.803, ketamine vs. 5 h-post ketamine F(1,411)=44.34, p=0.000): no longer significant; also recorded: full recovery
- P300 amplitude, ketamine vs. saline ([1]; acute subanesthetic ketamine infusion 1 mg/Kg, vs. vehicle saline, F(1,301)=27.73, p=0.000, Cz electrode): significant reduction
- P300 latency differences across conditions [1, 3]: No significant latency differences
- Effect of ketamine on MMN 5 h after infusion ([2]; 5 h-post ketamine vs. saline F(1,290)=0.20, p=0.652, ketamine vs. 5 h-post ketamine F(1,403)=7.97, p=0.005): no longer significant; also recorded: full recovery
- MMN amplitude, ketamine vs. saline ([2]; acute subanesthetic ketamine infusion 1 mg/Kg, vs. vehicle saline, F(1,290)=4.47, p=0.035, Cz electrode): significant reduction
- MMN latency differences across conditions [2, 3]: No significant latency differences
